Nine compounds from patent publication US20030040510A1, “Selective estrogen receptor modulators in combination with estrogens” (Endorecherche, Inc., priority 2000, published 2003) can be followed below.

For series [1], the system named is breast and endometrial tissues. Description: Antiestrogens tested for SERM function and estrogenic activity in breast and endometrium. As to conditions: for Estrogenic activity in breast and endometrial tissues: physiological or pharmacological concentrations. From the text: As used herein, a selective estrogen receptor modulator (SERM) is a compound that either directly or through its active metabolite functions as an estrogen receptor antagonist (“antiestrogen”) in breast tissue, yet provides estrogenic or estrogen-like effect on bone tissue and on serum cholesterol levels (i.e. by reducing serum cholesterol). Non-steroidal compounds that function as estrogen receptor antagonists in vitro or in human or rat breast tissue (especially if the compound acts as an antiestrogen on human breast cancer cells) is likely to function as a SERM. Conversely, steroidal antiestrogens tend not to function as SERMs because they tend not to display any beneficial effect on serum cholesterol. […] These SERMs may be called “pure SERMs”. […] This second series of SERMs may be called “mixed SERMs”. The unwanted estrogenic activities of these “mixed SERMs”, may be inhibited by addition of pure “SERMs” as shown in FIGS. 6 and 7 in in vitro tests and in FIG. 9 in an in vivo test of breast cancer.

Series [2] relates to ZR-75-1 breast tumor xenografts. Description: Growth of human ZR-75-1 breast tumor xenografts in OVX nude mice supplemented with estrone (DHEA, EM-800; Example 1). To be noted: OVX + E1 (0.5 μg) alone, 9.5 months. Background: Xenograft models place foreign cells or tissue in a host animal.
The test system of a further series is ZR-75-1 breast tumors. As to the kind of experiment: Growth and response category of human ZR-75-1 breast tumors in OVX nude mice, 7 antiestrogens, 161 days (Example 8). The class given is in vivo. As to conditions: 161 days. The procedure: The mice (5 per cage) were housed in vinyl cages equipped with air filter lids, which were kept in laminar airflow hoods and maintained under pathogen-limiting conditions. The photoperiod was 12 hours of light and 12 hours of darkness (lights on at 07:15). Cages, bedding and food (Agway Pro-Lab R-M-H Diet #4018) were autoclaved before use. Water was autoclaved and provided ad libitum. Bilateral ovariectomy was performed under isoflurane-induced anesthesia. […] Randomization and treatments were started one week later. […] The 17 groups included two control groups (OVX and OVX+Estrone), seven groups supplemented with an estrone implant and treated with an antiestrogen and eight other groups that received an antiestrogen alone. The estrone implants were then removed from the animals in the ovariectomized control group (OVX) and in groups that were to receive the antiestrogen alone. […] Tamoxifen was purchased from […], Israel) while toremifene citrate was purchased from Orion (Espoo, Finland). […] Animals in both control groups received 0.2 ml of the vehicle alone. The antiestrogen suspensions at the appropriate concentration were prepared each month, stored at 4° C. and used under constant agitation. Powder stock were hermetically stored at 4° C. […] Tumor response was assessed at the end of the study or at death of each animal, if it occurred during the course of the experiment. In this case, only data of mice that survived for at least half of the study (84 days) were used in the tumor response analysis.

Series [3] can be described thus: Tissue distribution of radioactivity after a single oral dose of ^14C-EM-800. The class given is in vivo, female Long-Evans rats. To be noted: for Drug-derived radioactivity, brain / Drug-derived radioactivity, blood / Drug-derived radioactivity, plasma: 20 mg/kg.
Source text: It is important to note that some of the radioactivity detected in the brain tissue may be due to residual blood in the tissue. Additionally, the radiochemical purity of the ^14C-EM-800 used for this study was minimally 96.25%.
Where [4] appears, read: 200 μg daily, absence of estrone.

Several values for one entry are separate records, joined by “and”; a condition that tells them apart may be missing. Equal entries are not always repeated.

Regarding `CN(C)CCOc1ccc(/C(=C(/CCCl)c2ccccc2)c2ccc(O)cc2)cc1` [OH-Toremifene, (Z)-(2)-2-[4-(4-chloro-1-(4-hydroxyphenyl)-2-phenyl-1-butenyl)phenoxy]-N,N-dimethyletha namine], in series [1], the “Function as SERM” value is “found to function as SERMs”; the “Estrogenic activity in breast and endometrial tissues” value (shortened to “Estrogenic activity”) is “have some estrogenic activities”.

For `C[C@]12CC[C@@H]3c4ccc(O)cc4CC[C@H]3[C@@H]1CCC2=O` [E1, Estrone, reference compound], in series [2], the “Category of response: Complete” value is 0 (0) Number and (%); the “Category of response: Partial” value is 0 (0) Number and (%); the “Category of response: Progression” value was 14 (87.5) Number and (%). The “Category of response: Complete” value in series [2] (listed as estrone) is 0 Number and (%).

Turning to `CN(C)CCOc1ccc(/C(=C(/CCCl)c2ccccc2)c2ccccc2)cc1` [Toremifene, (Z)-2-[4-(4-Chloro-1,2-diphenyl-1-butenyl)phenoxy]-N,N-dimethylethanamine], in series [1], the “Function as SERM” value was “found to function as SERMs”; the “Estrogenic activity” value is on record as “have some estrogenic activities”. Moreover, the Progressing tumors with ZR-75-1 breast tumors (50 μg daily + estrone) is 89%. Further, in the series with ZR-75-1 breast tumors (setting [4]), the “Increase of average tumor size over baseline” value was 86% and the Progressing tumors was 21%.

Regarding `CC/C(=C(\c1ccccc1)c1ccc(OCCN(C)C)cc1)c1ccccc1` [Tamoxifen, (Z)-2-[4-(1,2-diphenyl-1-butenyl)phenoxy]-N,N-dimethylethanamine], in series [1], the “Function as SERM” value is recorded as “found to function as SERMs”; the “Estrogenic activity” value is on record as “have some estrogenic activities”. Moreover, the Progressing tumors in the series on ZR-75-1 breast tumors (50 μg daily + estrone) is recorded as 65%. This compound also came in with a Progressing tumors with ZR-75-1 breast tumors (setting [4]) of 62%.

Consider `Cl.Oc1ccc(-c2sc3cc(O)ccc3c2Oc2ccc(OCCN3CCCCC3)cc2)cc1` [LY 335 563, 6-hydroxy-3-[4-[2-(1-piperidinyl)ethoxy]phenoxyl]-2-(4-hydroxyphenyl) benzo[b]thiopene hydrochloride], for which, in series [1], the “Function as SERM” value is “found to function as SERMs”; the “Estrogenic activity” value is given as “have some estrogenic activities”.

Take `CCC(=C(c1ccc(O)cc1)c1ccc(OCCN(C)C)cc1)c1ccccc1` [4-hydroxy-Tamoxifen, 1-(4-dimethylaminoethoxyphenyl)-1-(4-hydroxyphenyl)-2-phenyl-but-1-ene]: in series [1], the “Function as SERM” value is “found to function as SERMs”; the “Estrogenic activity” value was “have some estrogenic activities”.

In the case of `CC1=C(c2ccc(OC(=O)C(C)(C)C)cc2)[C@H](c2ccc(OCCN3CCCCC3)cc2)Oc2cc(OC(=O)C(C)(C)C)ccc21` [^14C-EM-800], the “Radioactivity in the brain lower than in liver” value in series [3] (2 hours) came out at 412. Moreover, in series [3] (2 hours), the “Radioactivity in the brain lower than in plasma” value was 13 times. Also, the “Radioactivity in the brain lower than in the blood” value in series [3] (2 hours) turned out to be 8.4 times. In series [3] (2 hours), the “Radioactivity in the brain lower than in the uterus” value was determined as 21 times. Further, the “Drug-derived radioactivity, liver” value is recorded as 7.2547 μg EM-800 equiv/g tissue in series [3] (2 hr, 20 mg/kg oral); 3.2201 μg EM-800 equiv/g tissue in series [3] (4 hr, 20 mg/kg oral); 2.7462 μg EM-800 equiv/g tissue in series [3] (6 hr, 20 mg/kg oral); 2.7748 μg EM-800 equiv/g tissue in series [3] (8 hr, 20 mg/kg oral); 1.8232 μg EM-800 equiv/g tissue in series [3] (12 hr, 20 mg/kg oral); 0.6391 μg EM-800 equiv/g tissue in series [3] (24 hr, 20 mg/kg oral). In addition, the “Drug-derived radioactivity, liver” value was 0.4034 μg EM-800 equiv/g tissue in series [3] (36 hr, 20 mg/kg oral); 0.2196 μg EM-800 equiv/g tissue in series [3] (48 hr, 20 mg/kg oral); 0.1326 μg EM-800 equiv/g tissue in series [3] (72 hr, 20 mg/kg oral); 0.0944 μg EM-800 equiv/g tissue in series [3] (96 hr, 20 mg/kg oral); 0.0348 μg EM-800 equiv/g tissue in series [3] (168 hr, 20 mg/kg oral). The “Drug-derived radioactivity, uterus” value is recorded as 0.3675 μg EM-800 equiv/g tissue in series [3] (2 hr, 20 mg/kg oral); 0.2866 μg EM-800 equiv/g tissue in series [3] (4 hr, 20 mg/kg oral); 0.2757 μg EM-800 equiv/g tissue in series [3] (6 hr, 20 mg/kg oral); 0.3332 μg EM-800 equiv/g tissue in series [3] (8 hr, 20 mg/kg oral); 0.2407 μg EM-800 equiv/g tissue in series [3] (12 hr, 20 mg/kg oral); 0.0837 μg EM-800 equiv/g tissue in series [3] (24 hr, 20 mg/kg oral). The “Drug-derived radioactivity, uterus” value in series [3] (36 hr, 20 mg/kg oral) was 0.0261 μg EM-800 equiv/g tissue; in series [3] (48 hr, 20 mg/kg oral), 0.0238 μg EM-800 equiv/g tissue; in series [3] (72 hr, 20 mg/kg oral), 0 μg EM-800 equiv/g tissue; in series [3] (96 hr, 20 mg/kg oral) it was 0 μg EM-800 equiv/g tissue; in series [3] (168 hr, 20 mg/kg oral), 0 μg EM-800 equiv/g tissue. Moreover, the “Drug-derived radioactivity, brain” value was 0 ng EM-800 equiv/g tissue and 0 μg EM-800 equiv/g tissue in series [3] (24 hr, 20 mg/kg oral); 0 ng EM-800 equiv/g tissue and 0 μg EM-800 equiv/g tissue in series [3] (36 hr, 20 mg/kg oral); 0 ng EM-800 equiv/g tissue and 0 μg EM-800 equiv/g tissue in series [3] (48 hr, 20 mg/kg oral); 0 ng EM-800 equiv/g tissue and 0 μg EM-800 equiv/g tissue in series [3] (72 hr, 20 mg/kg oral); 0 ng EM-800 equiv/g tissue and 0 μg EM-800 equiv/g tissue in series [3] (96 hr, 20 mg/kg oral); 0 ng EM-800 equiv/g tissue and 0 μg EM-800 equiv/g tissue in series [3] (168 hr, 20 mg/kg oral). The “Drug-derived radioactivity, blood” value in series [3] (36 hr, 20 mg/kg oral) is 0 ng EM-800 equiv/g tissue and 0 μg EM-800 equiv/g tissue; in series [3] (48 hr, 20 mg/kg oral), 0 ng EM-800 equiv/g tissue and 0 μg EM-800 equiv/g tissue; in series [3] (72 hr, 20 mg/kg oral) it was 0 ng EM-800 equiv/g tissue and 0 μg EM-800 equiv/g tissue; in series [3] (96 hr, 20 mg/kg oral) it was 0 ng EM-800 equiv/g tissue and 0 μg EM-800 equiv/g tissue; in series [3] (168 hr, 20 mg/kg oral) it was 0 ng EM-800 equiv/g tissue and 0 μg EM-800 equiv/g tissue. For the same compound, the “Drug-derived radioactivity, plasma” value in series [3] (36 hr, 20 mg/kg oral) was 0 ng EM-800 equiv/g tissue and 0 μg EM-800 equiv/g tissue; in series [3] (48 hr, 20 mg/kg oral) it was 0 ng EM-800 equiv/g tissue and 0 μg EM-800 equiv/g tissue; in series [3] (72 hr, 20 mg/kg oral), 0 ng EM-800 equiv/g tissue and 0 μg EM-800 equiv/g tissue; in series [3] (96 hr, 20 mg/kg oral), 0 ng EM-800 equiv/g tissue and 0 μg EM-800 equiv/g tissue; in series [3] (168 hr, 20 mg/kg oral), 0 ng EM-800 equiv/g tissue and 0 μg EM-800 equiv/g tissue. The “Total drug-derived radioactivity in the brain” value in series [3] (female Long-Evans rats, 20 mg/kg oral) is “not detected after 12 hr post dose”.

As to `Cc1c(-c2ccc(O)cc2)n(Cc2ccc(OCCN3CCCCCC3)cc2)c2ccc(O)cc12` [TSE 424], the “Function as SERM” value in series [1] is “found to function as SERMs”.

Consider `C[C@]12CC[C@@H]3c4ccc(O)cc4C[C@@H](CCCCCCCCC[S+]([O-])CCCC(F)(F)C(F)(F)F)[C@H]3[C@@H]1CC[C@@H]2O` (stereo partly shown) [ICI 182,780], for which, in series [1], the “Function as SERM” value is on record as “not to function as a-SERMs”.
